Results: patent US4027039A (priority 1975, dated 1977)
“And” between values parts separate entries of the source, which are not always exact repeats. Identical values can stand only once. Like-named read-outs stand apart in the source and are kept apart here.

What was measured:
[1] = tested on: Influenza B Massachusetts virus; assay: Influenza B Mass. in mice, oral; late read day 5 (Table 39), 7 (Table 40), 11 (Tables 61, 65); control fraction 16/20 (Table 61), else 100%; assay type: in vivo, mouse
Description: A portion of a commercially available sample of amantadine was recrystallized from isopropanol. The activity of the material against Influenza B Mass. was tested for the sample as obtained, the recrystallized portion, and the mother liquor obtained from recrystallizing the portion.

viral infections = assay: Antiviral screening in animals, general statements; details: mouse, in vivo
Herpes virus [2] = assay: Herpes virus in chicken eggs, single dose 24 hours pre-infection; assay type: in vivo, chick embryo
[3] = tested on: Influenza, Ann Arbor virus; assay: Influenza Ann Arbor in mice, oral; schedule by table; late read day 5 (Tables 15, 25, 29, 30), 6 (18, 20, 22, 23, 26, 27, 28, 54), 7 (14, 19, 21, 24, 53, 56), 8 (16, 17, 51), 9 (11, 55); assay type: in vivo, mouse
Vaccinia IHD virus = assay type: in vivo, mouse
Herpes virus [4] = tested on: Herpes virus
[5] = tested on: Influenza, Ann Arbor virus; assay: Influenza Ann Arbor in mice, subcutaneous; late read day 9 (Table 11), 7 (Tables 12, 14), 5 (Table 13); assay type: in vivo, mouse

## NC12CC3CC(CC(C3)C1)C2 [Recrystallized amantadine, amantadine, reference compound]
[1]; total dose 60 ng
  No. animals surviving after 11 days: 4
  Survivors: 2
[1]; total dose 600 ng
  No. animals surviving after 11 days: 3
  Survivors: 3
[1]; total dose 6 μg
  No. animals surviving after 11 days: 5
  Survivors: 5
[1]; total dose 60 μg
  No. animals surviving after 11 days: 5
  Survivors: 2
[1]; total dose 600 μg
  No. animals surviving after 11 days: 3
  Survivors: 2
[1]; total dose 6 mg
  No. animals surviving after 11 days: 6
  Survivors: 4

## N#CCC(=O)NN [Cyonacetic Acid Carbazide, Cyanoacetic Acid Hydrazide]
[1]; total dose .000005 μg (5 pg)
  No. animals surviving after 5 days (Table 61: 11 days): 3
  No. animals surviving when 100% (Table 61: 16/20) of controls are dead: 3
  Survivors: 3
[1]; total dose .00005 μg (50 pg)
  No. animals surviving after 5 days (Table 61: 11 days): 4
  No. animals surviving when 100% (Table 61: 16/20) of controls are dead: 4
  Survivors: 4
[1]; total dose .0005 μg (500 pg)
  No. animals surviving after 5 days (Table 61: 11 days): 8
  No. animals surviving when 100% (Table 61: 16/20) of controls are dead: 5
  Survivors: 5
[1]; total dose .005 μg (5 ng)
  No. animals surviving after 5 days (Table 61: 11 days): 2
  No. animals surviving when 100% (Table 61: 16/20) of controls are dead: 2
  Survivors: 1
[1]; total dose .05 μg (50 ng)
  No. animals surviving after 5 days (Table 61: 11 days): 4
  No. animals surviving when 100% (Table 61: 16/20) of controls are dead: 4
  Survivors: 3
[1]; total dose .5 μg (500 ng)
  No. animals surviving after 5 days (Table 61: 11 days): 5
  No. animals surviving when 100% (Table 61: 16/20) of controls are dead: 4
  Survivors: 4

## N=C(N)NN [aminoguanidine, bicarbonate]
[1]; total dose 40 pg
  Survivors: 0
[1]; total dose 400 pg
  Survivors: 2
[1]; total dose 4 ng
  Survivors: 0
[1]; total dose 40 ng
  Survivors: 1
[1]; total dose 400 ng
  Survivors: 1
[1]; total dose 4 μg
  Survivors: 1
Viral infections
  activity in words: very pronounced protective effects

## NN [hydrazine]
Herpes virus [2]; 2 μg
  Deaths on day 1: 3
  Deaths on day 2: 4
  Deaths on day 3: 1
  Deaths on day 4: 1
  No. dying 5-22 day: 0
  No. hatched: 1
  No. living longer than controls: 1
  Total deaths, 4th day: 9
Herpes virus [2]; 20 μg
  Deaths on day 1: 3
  Deaths on day 3: 4
  No. dying 5-22 day: 0
  No. hatched: 1
  No. living longer than controls: 1
  Total deaths, 4th day: 11
Herpes virus [2]; .00005 μg
  Deaths on day 3: 5
  No. dying 5-22 day: 0
  No. living longer than controls: 1
  Total deaths, 4th day: 9
Herpes virus [2]; .0005 μg
  Deaths on day 2: 6
  Deaths on day 3: 4
  No. dying 5-22 day: 0
  No. living longer than controls: 0
  Total deaths, 4th day: 12
Herpes virus [2]; .005 μg
  Deaths on day 2: 7
  Deaths on day 3: 4
  No. dying 5-22 day: 0
  No. living longer than controls: 0
  Total deaths, 4th day: 11
Herpes virus [2]; .05 μg
  Deaths on day 2: 5
  Deaths on day 3: 3
  No. dying 5-22 day: 0
  No. living longer than controls: 0
  Total deaths, 4th day: 10
Herpes virus [2]; .5 μg
  Deaths on day 3: 5
  Deaths on day 4: 1
  No. dying 5-22 day: 0
  No. living longer than controls: 0
  Total deaths, 4th day: 10
Herpes virus [2]; all doses
  Total no. living longer than controls: 3
[3]; oral
  activity in words: much less significant activity
Vaccinia IHD virus; 10 ng, day 6
  Statistical Significance of Tail Lesions: < .01
Vaccinia IHD virus; 10 ng, day 7
  Statistical Significance of Tail Lesions: < .05
Vaccinia IHD virus; 10 ng, day 11
  Statistical Significance of Tail Lesions: < .01
Vaccinia IHD virus; 10 ng, day 12
  Statistical Significance of Tail Lesions: < .01
Vaccinia IHD virus; 10 ng, day 14
  Statistical Significance of Tail Lesions: < .01
Vaccinia IHD virus; 10 ng, day 17
  Statistical Significance of Tail Lesions: < .01
Vaccinia IHD virus; 10 ng, day 21
  Statistical Significance of Tail Lesions: < .01
Vaccinia IHD virus; 1 μg, day 10
  Statistical Significance of Tail Lesions: < .01
Vaccinia IHD virus; 1 μg, day 11
  Statistical Significance of Tail Lesions: < .01
Vaccinia IHD virus; 1 μg, day 12
  Statistical Significance of Tail Lesions: < .01
Vaccinia IHD virus; 1 μg, day 14
  Statistical Significance of Tail Lesions: < .01
Vaccinia IHD virus; 1 μg, day 17
  Statistical Significance of Tail Lesions: < .01
Vaccinia IHD virus; 1 μg, day 21
  Statistical Significance of Tail Lesions: < .01
Vaccinia IHD virus; 10 [μg], day 10
  Statistical Significance of Tail Lesions: < .05
Vaccinia IHD virus; 10 [μg], day 11
  Statistical Significance of Tail Lesions: < .01
Vaccinia IHD virus; 10 [μg], day 12
  Statistical Significance of Tail Lesions: < .01
Vaccinia IHD virus; 10 [μg], day 14
  Statistical Significance of Tail Lesions: < .01
Vaccinia IHD virus; 10 [μg], day 17
  Statistical Significance of Tail Lesions: < .01
Vaccinia IHD virus; 10 [μg], day 21
  Statistical Significance of Tail Lesions: < .01
Vaccinia IHD virus; 100 [ng], day 5
  Statistical Significance of Tail Lesions: < .05
Vaccinia IHD virus; 100 [ng], day 6
  Statistical Significance of Tail Lesions: < .01
Vaccinia IHD virus; 100 [ng], day 7
  Statistical Significance of Tail Lesions: < .01
Vaccinia IHD virus; 100 [ng], day 8
  Statistical Significance of Tail Lesions: < .05
Vaccinia IHD virus; 100 [ng], day 10
  Statistical Significance of Tail Lesions: < .01
Vaccinia IHD virus; 100 [ng], day 11
  Statistical Significance of Tail Lesions: < .01
Vaccinia IHD virus; 100 [ng], day 12
  Statistical Significance of Tail Lesions: < .01
Vaccinia IHD virus; 100 [ng], day 14
  Statistical Significance of Tail Lesions: < .01
Vaccinia IHD virus; 100 [ng], day 17
  Statistical Significance of Tail Lesions: < .01
Vaccinia IHD virus; 100 [ng], day 21
  Statistical Significance of Tail Lesions: < .01
Herpes virus [4]; total dose .0005 μg
  No. animals surviving after 6-9 days: 6 and 5
Herpes virus [4]; total dose .005 μg
  No. animals surviving after 6-9 days: 6
Herpes virus [4]; total dose .05 μg
  No. animals surviving after 6-9 days: 3 and 5
  No. animals surviving when 100% (or given fraction) of controls are dead: 1
Herpes virus [4]; total dose .5 μg
  No. animals surviving when 100% (or given fraction) of controls are dead: 1

## O=C(C=NO)c1ccccc1 [phenylglyoxaloxime]
Viral infections
  activity in words: active

## N-hydroxyphthalamide
Viral infections
  activity in words: active

## N=C(N)NN [aminoguanidine]
[3]; oral
  activity in words: most active
[3]; oral, high dose
  treated animals survived: 50%
[3]; total dose 300 pg
  No. animals surviving after 5-7 days: 6
  Survivors: 1
[3]; total dose 3 ng
  Survivors: 1
[3]; total dose 30 ng
  Survivors: 2
[3]; total dose 300 ng
  Survivors: 4
[3]; total dose 3 μg
  No. animals surviving after 5-7 days: 8
  Survivors: 3
[3]; total dose 30 μg
  No. animals surviving after 5-7 days: 8
[5]; subcutaneous, only at one dose level
  survival: 50%
[5]; total dose 3 μg
  No. animals surviving after 7 days: 6
  Survivors: 2
[5]; total dose 30 μg
  Survivors: 2
[5]; total dose .0003 μg
  No. animals surviving after 7 days: 8
  Survivors: 5
[5]; total dose .003 μg
  No. animals surviving after 7 days: 8
  Survivors: 0
[5]; total dose .03 μg
  Survivors: 1
[5]; total dose .3 μg
  Survivors: 1

## NNC(=S)NC12CC3CC(CC(C3)C1)C2
Herpes virus [4]; total dose 4 pg
  No. animals surviving when 18/20 of controls are dead: 1
  Survivors: 1
Herpes virus [4]; total dose 40 pg
  No. animals surviving when 18/20 of controls are dead: 1
  Survivors: 1
Herpes virus [4]; total dose 400 pg
  No. animals surviving when 18/20 of controls are dead: 3
  Survivors: 3
Herpes virus [4]; total dose 4 ng
  No. animals surviving when 18/20 of controls are dead: 2
  Survivors: 2
Herpes virus [4]; total dose 40 ng
  No. animals surviving when 18/20 of controls are dead: 2
  Survivors: 2
Herpes virus [4]; total dose 400 ng
  No. animals surviving when 18/20 of controls are dead: 3
  Survivors: 3

## NC(=S)NN=C1CCCCC1 [Cyclohexanone, thiosemicarBazone, Cyclohexanone, thiosemicarbazone]
[1]; total dose .000005 μg (5 pg)
  No. animals surviving after 5 days (Table 61: 11 days): 7
  No. animals surviving when 100% (Table 61: 16/20) of controls are dead: 5
  Survivors: 5
[1]; total dose .00005 μg (50 pg)
  No. animals surviving after 5 days (Table 61: 11 days): 4
  No. animals surviving when 100% (Table 61: 16/20) of controls are dead: 3
  Survivors: 2
[1]; total dose .0005 μg (500 pg)
  No. animals surviving after 5 days (Table 61: 11 days): 2
  No. animals surviving when 100% (Table 61: 16/20) of controls are dead: 2
  Survivors: 2
[1]; total dose .005 μg (5 ng)
  No. animals surviving after 5 days (Table 61: 11 days): 3
  No. animals surviving when 100% (Table 61: 16/20) of controls are dead: 2
  Survivors: 2
[1]; total dose .05 μg (50 ng)
  No. animals surviving after 5 days (Table 61: 11 days): 7
  No. animals surviving when 100% (Table 61: 16/20) of controls are dead: 7
  Survivors: 5
[1]; total dose .5 μg (500 ng)
  No. animals surviving after 5 days (Table 61: 11 days): 2
  No. animals surviving when 100% (Table 61: 16/20) of controls are dead: 1
  Survivors: 1

## NNc1nncc2ccccc12 [Hydralazine, hydralazine, reference compound]
Herpes virus [4]; mouse, in vivo
  activity in words: effective
